According to the NIST ThermoML archive (doi:10.1016/j.jct.2011.11.021):
Numbers after ± are expanded uncertainties.

Test: activity coefficient (dimensionless); of the first substance listed, at infinite dilution; xn = mol fraction of the nth substance listed
Settings: Liquid, Chromatography, x1 = 0

SMILES	activity coefficient (318.15 K)	activity coefficient (328.15 K)	activity coefficient (338.15 K)	activity coefficient (348.15 K)	activity coefficient (358.15 K)	activity coefficient (368.15 K)
c1ccncc1 [pyridine] + COCC[N+]1(C)CCOCC1.O=S(=O)([N-]S(=O)(=O)C(F)(F)F)C(F)(F)F	0.64 ± 0.044	0.644 ± 0.044	0.648 ± 0.044	0.651 ± 0.045	0.654 ± 0.045	0.658 ± 0.045
C=Cc1ccccc1 [styrene] + COCC[N+]1(C)CCOCC1.O=S(=O)([N-]S(=O)(=O)C(F)(F)F)C(F)(F)F	1.77 ± 0.12	1.77 ± 0.12	1.76 ± 0.12	1.76 ± 0.12	1.76 ± 0.12	1.76 ± 0.12
C1CCOC1 [tetrahydrofuran] + COCC[N+]1(C)CCOCC1.O=S(=O)([N-]S(=O)(=O)C(F)(F)F)C(F)(F)F	0.858 ± 0.055	0.867 ± 0.055	0.873 ± 0.056	0.882 ± 0.056	0.888 ± 0.057	0.895 ± 0.057
c1ccsc1 [thiophene] + COCC[N+]1(C)CCOCC1.O=S(=O)([N-]S(=O)(=O)C(F)(F)F)C(F)(F)F	1.09 ± 0.07	1.08 ± 0.07	1.08 ± 0.07	1.08 ± 0.07	1.08 ± 0.07	1.08 ± 0.07
Cc1ccccc1 [toluene] + COCC[N+]1(C)CCOCC1.O=S(=O)([N-]S(=O)(=O)C(F)(F)F)C(F)(F)F	2.01 ± 0.14	2.01 ± 0.14	2 ± 0.14	1.99 ± 0.14	1.98 ± 0.13	1.97 ± 0.13
O [water] + COCC[N+]1(C)CCOCC1.O=S(=O)([N-]S(=O)(=O)C(F)(F)F)C(F)(F)F	2.49 ± 0.17	2.17 ± 0.15	1.94 ± 0.13	1.73 ± 0.12	1.55 ± 0.1	1.41 ± 0.09
